Assay results: patent US20230265151A1, “GIP/GLP1 CO-AGONIST COMPOUNDS” (priority 2020, published 2023)
Where two headings read alike, the source gives them in different places. *1 amine or outer side, *2 acyl side, *3 side chain or, on linkers, in order; H or OH if unused. Where a SMILES comes first, the peptide text is derived from it. Side-chain parts run from the residue outwards. [ ]: non-standard residue; d: D form. The star is where a group is joined. αMePhe(2-F) = C[C@](N)(Cc1ccccc1F)C(=O)O; γGlu = O=C(O)[C@H](CCC(=O)[*:2])N[*:1]; C14 diacid = O=C(O)CCCCCCCCCCCCC(=O)*; αMeY = C[C@](N)(Cc1ccc(O)cc1)C(=O)O; αMeF = C[C@](N)(Cc1ccccc1)C(=O)O; 4Pal = N[C@@H](Cc1ccncc1)C(=O)O; αMeL = CC(C)C[C@](C)(N)C(=O)O; Orn = NCCC[C@H](N)C(=O)O; AEEA = NCCOCCOCC(=O)O; Aib = CC(C)(N)C(=O)O

Assays:
Format in all cases: cell-based
hGCGR = target: T1, hGCGR (Homo sapiens, UniProt P47871); test: Functional cAMP formation (HTRF) in HEK-293 clonal cells expressing hGCGR, 0.1% bovine casein, without or with 1.0% human serum albumin
T1 construct: expressed in transfected cells
Summary of the method: (§1)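 Cells were stimulated with peptide for 30 min at 37° C, then intracellular cAMP was measured by competitive HTRF (665/620 nm ratio) and converted to nM using a cAMP standard curve. Relative EC50 and Emax came from four-parameter logistic fits of percent maximal response against peptide concentration.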

hGLP-1R = hGLP-1R (Homo sapiens, UniProt P43220); test: Functional cAMP formation (HTRF) in HEK-293 clonal cells expressing hGLP-1R, 0.1% bovine casein, without or with 1.0% human serum albumin; parameters: expressed in transfected cells
Summary of the method: as §1

hGIPR = target: T2, hGIPR (Homo sapiens, UniProt P48546); test: Functional cAMP formation (HTRF) in HEK-293 clonal cells expressing hGIPR, 0.1% bovine casein, without or with 1.0% human serum albumin; settings: for EC50: geometric mean
T2 construct: expressed in transfected cells
T2 sequence (P48546 22-466): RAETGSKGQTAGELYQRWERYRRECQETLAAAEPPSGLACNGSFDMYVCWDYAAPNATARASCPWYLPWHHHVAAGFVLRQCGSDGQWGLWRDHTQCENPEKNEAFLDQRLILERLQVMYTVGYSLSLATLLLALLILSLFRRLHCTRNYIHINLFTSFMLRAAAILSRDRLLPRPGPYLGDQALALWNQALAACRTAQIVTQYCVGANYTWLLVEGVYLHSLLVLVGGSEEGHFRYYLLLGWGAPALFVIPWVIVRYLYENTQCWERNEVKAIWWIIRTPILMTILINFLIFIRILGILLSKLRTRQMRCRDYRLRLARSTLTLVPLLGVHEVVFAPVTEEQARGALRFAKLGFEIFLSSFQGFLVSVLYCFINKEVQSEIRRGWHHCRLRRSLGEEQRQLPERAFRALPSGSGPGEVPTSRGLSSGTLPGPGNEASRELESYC
Summary of the method: as §1

[1] = cAMP, incubated at 37° C., 0.1% bovine casein (no human serum albumin), geometric mean, read-out: hGCGR EC50, nM (SEM, n)
[2] = HEK293, percent of maximal response to GLP-1(7-36)NH2, 37° C., 0.1% bovine casein, arithmetic mean, read-out: hGLP-1R Emax, % ± SEM
[3] = HEK293, percent of maximal response to GIP(1-42)NH2, 37° C., 0.1% bovine casein, arithmetic mean, read-out: hGIPR Emax, % ± SEM
[4] = cAMP, incubated at 37° C., 0.1% bovine casein (no human serum albumin), read-out: hGIPR EC50, nM (SEM, n)

Chain of hGLP-1R (P43220 24-463): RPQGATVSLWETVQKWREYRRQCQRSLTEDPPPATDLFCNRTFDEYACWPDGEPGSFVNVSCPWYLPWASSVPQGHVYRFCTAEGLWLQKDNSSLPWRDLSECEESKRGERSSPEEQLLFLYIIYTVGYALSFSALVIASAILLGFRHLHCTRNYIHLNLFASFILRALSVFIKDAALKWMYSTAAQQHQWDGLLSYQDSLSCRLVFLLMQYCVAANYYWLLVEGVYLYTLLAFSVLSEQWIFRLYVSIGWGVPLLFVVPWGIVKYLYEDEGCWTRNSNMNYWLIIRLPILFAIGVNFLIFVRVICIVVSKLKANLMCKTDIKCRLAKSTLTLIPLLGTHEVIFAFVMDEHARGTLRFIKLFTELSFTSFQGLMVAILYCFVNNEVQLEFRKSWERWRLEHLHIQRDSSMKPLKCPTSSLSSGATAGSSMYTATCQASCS
T1 sequence (P47871 26-477): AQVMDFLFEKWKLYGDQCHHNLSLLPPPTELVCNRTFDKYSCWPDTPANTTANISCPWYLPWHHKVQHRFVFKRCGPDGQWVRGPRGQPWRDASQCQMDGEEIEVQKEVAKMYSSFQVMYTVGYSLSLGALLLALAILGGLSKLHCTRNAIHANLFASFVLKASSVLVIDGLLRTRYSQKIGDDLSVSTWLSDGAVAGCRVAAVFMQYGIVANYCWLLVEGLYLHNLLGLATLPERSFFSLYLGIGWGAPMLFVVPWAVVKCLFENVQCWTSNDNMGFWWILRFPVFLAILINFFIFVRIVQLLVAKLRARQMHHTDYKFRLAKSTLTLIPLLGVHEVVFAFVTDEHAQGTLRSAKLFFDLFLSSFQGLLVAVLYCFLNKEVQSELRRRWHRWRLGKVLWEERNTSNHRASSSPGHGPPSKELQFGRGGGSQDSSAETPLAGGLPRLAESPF

CC[C@H](C)[C@H](NC(=O)[C@H](CC(C)C)NC(=O)[C@](C)(Cc1ccc(O)cc1)NC(=O)[C@H](CCCCNC(=O)COCCOCCNC(=O)COCCOCCNC(=O)CC[C@H](NC(=O)CC[C@H](NC(=O)CCCCCCCCCCCCC(=O)O)C(=O)O)C(=O)O)NC(=O)[C@@H](NC(=O)[C@H](Cc1ccccc1)NC(=O)[C@H](CCCN)NC(=O)C(C)(C)NC(=O)[C@H](CCC(N)=O)NC(=O)[C@H](C)NC(=O)[C@H](CCC(N)=O)NC(=O)[C@H](CCCN)NC(=O)[C@H](CC(=O)O)NC(=O)[C@H](CC(C)C)NC(=O)[C@](C)(CC(C)C)NC(=O)[C@@H](NC(=O)C(C)(C)NC(=O)[C@H](Cc1ccc(O)cc1)NC(=O)[C@H](CC(=O)O)NC(=O)[C@H](CO)NC(=O)[C@@H](NC(=O)[C@](C)(Cc1ccccc1F)NC(=O)[C@@H](NC(=O)CNC(=O)[C@H](CCC(=O)O)NC(=O)C(C)(C)NC(=O)[C@@H](N)Cc1ccc(O)cc1)[C@@H](C)O)[C@@H](C)O)[C@@H](C)CC)[C@@H](C)CC)C(=O)N[C@@H](CCCCNC(=O)COCCOCCNC(=O)COCCOCCNC(=O)CC[C@H](NC(=O)CC[C@H](NC(=O)CCCCCCCCCCCCC(=O)O)C(=O)O)C(=O)O)C(=O)NCC(=O)NCC(=O)N1CCC[C@H]1C(=O)N[C@@H](CO)C(=O)N[C@@H](CO)C(=O)NCC(=O)N[C@@H](C)C(=O)N1CCC[C@H]1C(=O)N1CCC[C@H]1C(=O)N1CCC[C@H]1C(=O)N[C@@H](CO)C(N)=O [Example 480]
EC50 (hGCGR; cAMP, 37° C., 0.1% bovine casein (no human serum albumin), geometric mean, read-out: hGCGR EC50, nM (SEM, n)): > 9950 nM
EC50 (hGCGR; cAMP, 37° C., 0.1% bovine casein and 1.0% human serum albumin, geometric mean (SEM, n), read-out: hGCGR EC50, nM (SEM, n)): > 9950 nM
Emax (hGLP-1R; HEK293, cAMP, 37° C., 0.1% bovine casein, percent of maximal response to GLP-1(7-36)NH2, arithmetic mean, read-out: hGLP-1R Emax, % ± SEM): 120%
EC50 (hGLP-1R; cAMP, 37° C., 0.1% bovine casein (no human serum albumin), geometric mean, read-out: hGLP-1R EC50, nM (SEM, n)): 0.124 nM
EC50 (hGLP-1R; cAMP, 37° C., 0.1% bovine casein and 1.0% human serum albumin, geometric mean (SEM, n), read-out: hGLP-1R EC50, nM (SEM, n)): 2.65 nM
EC50 (hGIPR; cAMP, 37° C., 0.1% bovine casein (no human serum albumin), read-out: hGIPR EC50, nM (SEM, n)): 0.00955 nM

CC[C@H](C)[C@H](NC(=O)[C@H](CCCN)NC(=O)[C@H](CC(=O)O)NC(=O)[C@H](CC(C)C)NC(=O)[C@](C)(CC(C)C)NC(=O)[C@@H](NC(=O)C(C)(C)NC(=O)[C@H](Cc1ccncc1)NC(=O)[C@H](CC(=O)O)NC(=O)[C@H](CO)NC(=O)[C@@H](NC(=O)[C@](C)(Cc1ccccc1F)NC(=O)[C@@H](NC(=O)CNC(=O)[C@H](CCC(=O)O)NC(=O)C(C)(C)NC(=O)[C@@H](N)Cc1ccc(O)cc1)[C@@H](C)O)[C@@H](C)O)[C@@H](C)CC)C(=O)N[C@@H](C)C(=O)N[C@@H](CCC(N)=O)C(=O)NC(C)(C)C(=O)N[C@@H](CCCCNC(=O)COCCOCCNC(=O)COCCOCCNC(=O)CC[C@H](NC(=O)CCCCCCCCCCCCC(=O)O)C(=O)O)C(=O)N[C@@H](Cc1ccccc1)C(=O)N[C@H](C(=O)N[C@@H](CCCCNC(=O)COCCOCCNC(=O)COCCOCCNC(=O)CC[C@H](NC(=O)CCCCCCCCCCCCC(=O)O)C(=O)O)C(=O)N[C@@](C)(Cc1ccc(O)cc1)C(=O)N[C@@H](CC(C)C)C(=O)N[C@H](C(=O)N[C@@H](CCC(=O)O)C(=O)NCC(=O)NCC(=O)N1CCC[C@H]1C(=O)N[C@@H](CO)C(=O)N[C@@H](CO)C(=O)NCC(=O)N[C@@H](C)C(=O)N1CCC[C@H]1C(=O)N1CCC[C@H]1C(=O)N1CCC[C@H]1C(=O)N[C@@H](CO)C(N)=O)[C@@H](C)CC)[C@@H](C)CC [Example 218] (H-Y[Aib]EGT[αMePhe(2-F)]TSD[4Pal][Aib]I[αMeL]LD[Orn]IAQ[Aib]K([AEEA-AEEA-γGlu-C14 diacid])FIK([AEEA-AEEA-γGlu-C14 diacid])[αMeY]LIEGGPSSGAPPPS-NH2; N-terminus assumed)
EC50 (hGCGR; hGCGR EC50, nM (SEM, n), 0.1% bovine casein and 1.0% human serum albumin, 37° C., geometric mean): > 9950 nM
EC50 (hGCGR; hGCGR EC50, nM (SEM, n), cAMP, incubated at 37° C., 0.1% bovine casein (no human serum albumin), geometric mean): > 9950 nM
Emax (hGLP-1R; HEK293, read-out: hGLP-1R Emax, % ± SEM, 0.1% bovine casein and 1.0% human serum albumin, 37° C., percent of maximal response to GLP-1(7-36)NH2): 121%
Emax (hGLP-1R; HEK293, read-out: hGLP-1R Emax, % ± SEM, percent of maximal response to GLP-1(7-36)NH2, 37° C., 0.1% bovine casein, arithmetic mean): 92.6%
EC50 (hGLP-1R; hGLP-1R EC50, nM (SEM, n), 0.1% bovine casein and 1.0% human serum albumin, 37° C., geometric mean): 36.6 nM
EC50 (hGLP-1R; hGLP-1R EC50, nM (SEM, n), cAMP, incubated at 37° C., 0.1% bovine casein (no human serum albumin), geometric mean): 0.714 nM
Emax (hGIPR; HEK293, read-out: hGIPR Emax, % ± SEM, 0.1% bovine casein and 1.0% human serum albumin, 37° C., percent of maximal response to GIP(1-42)NH2): 95.9%
Emax (hGIPR; HEK293, read-out: hGIPR Emax, % ± SEM, percent of maximal response to GIP(1-42)NH2, 37° C., 0.1% bovine casein, arithmetic mean): 90.2%
EC50 (hGIPR; hGIPR EC50, nM (SEM, n), 0.1% bovine casein and 1.0% human serum albumin, 37° C.): 3.27 nM
EC50 (hGIPR; hGIPR EC50, nM (SEM, n), cAMP, incubated at 37° C., 0.1% bovine casein (no human serum albumin)): 0.0515 nM

CC[C@H](C)[C@H](NC(=O)[C@H](CCCN)NC(=O)[C@H](CC(=O)O)NC(=O)[C@H](CC(C)C)NC(=O)[C@](C)(CC(C)C)NC(=O)[C@@H](NC(=O)[C@H](CO)NC(=O)[C@H](CCCCNC(=O)COCCOCCNC(=O)COCCOCCNC(=O)CC[C@H](NC(=O)CCCCCCCCCCCCC(=O)O)C(=O)O)NC(=O)[C@H](CC(=O)O)NC(=O)[C@H](CO)NC(=O)[C@@H](NC(=O)[C@](C)(Cc1ccccc1F)NC(=O)[C@@H](NC(=O)CNC(=O)[C@H](CCC(=O)O)NC(=O)C(C)(C)NC(=O)[C@@H](N)Cc1ccc(O)cc1)[C@@H](C)O)[C@@H](C)O)[C@@H](C)CC)C(=O)N[C@@H](C)C(=O)N[C@@H](CCC(N)=O)C(=O)NC(C)(C)C(=O)N[C@@H](CCC(=O)O)C(=O)N[C@@](C)(Cc1ccccc1)C(=O)N[C@H](C(=O)N[C@H](CCC(=O)O)C(=O)N[C@@](C)(Cc1ccc(O)cc1)C(=O)N[C@@H](CC(C)C)C(=O)N[C@H](C(=O)N[C@@H](CCCCNC(=O)COCCOCCNC(=O)COCCOCCNC(=O)CC[C@H](NC(=O)CCCCCCCCCCCCC(=O)O)C(=O)O)C(=O)NCC(=O)NCC(=O)N1CCC[C@H]1C(=O)N[C@@H](CO)C(=O)N[C@@H](CO)C(=O)NCC(=O)N[C@@H](C)C(=O)N1CCC[C@H]1C(=O)N1CCC[C@H]1C(=O)N1CCC[C@H]1C(=O)N[C@@H](CO)C(N)=O)[C@@H](C)CC)[C@@H](C)CC [Example 111] (H-Y[Aib]EGT[αMePhe(2-F)]TSDK([AEEA-AEEA-γGlu-C14 diacid])SI[αMeL]LD[Orn]IAQ[Aib]E[αMeF]I[dE][αMeY]LIK([AEEA-AEEA-γGlu-C14 diacid])GGPSSGAPPPS-NH2; N-terminus assumed)
EC50 (hGCGR; [1]): > 9950 nM
Emax (hGLP-1R; [2]): 121%
Emax (hGIPR; [3]): 76.1%
EC50 (hGIPR; [4]): 0.0202 nM

CC[C@H](C)[C@H](NC(=O)[C@H](CCCN)NC(=O)[C@H](CC(=O)O)NC(=O)[C@H](CC(C)C)NC(=O)[C@](C)(CC(C)C)NC(=O)[C@@H](NC(=O)[C@H](CO)NC(=O)[C@H](CCCCNC(=O)COCCOCCNC(=O)COCCOCCNC(=O)CC[C@H](NC(=O)CCCCCCCCCCCCC(=O)O)C(=O)O)NC(=O)[C@H](CC(=O)O)NC(=O)[C@H](CO)NC(=O)[C@@H](NC(=O)[C@](C)(Cc1ccccc1F)NC(=O)[C@@H](NC(=O)CNC(=O)[C@H](CCC(=O)O)NC(=O)C(C)(C)NC(=O)[C@@H](N)Cc1ccc(O)cc1)[C@@H](C)O)[C@@H](C)O)[C@@H](C)CC)C(=O)N[C@@H](C)C(=O)N[C@@H](CCC(N)=O)C(=O)NC(C)(C)C(=O)N[C@@H](CCC(=O)O)C(=O)N[C@@H](Cc1ccccc1)C(=O)N[C@H](C(=O)N[C@H](CCC(=O)O)C(=O)N[C@@](C)(Cc1ccc(O)cc1)C(=O)N[C@@H](CC(C)C)C(=O)N[C@H](C(=O)N[C@@H](CCCCNC(=O)COCCOCCNC(=O)COCCOCCNC(=O)CC[C@H](NC(=O)CCCCCCCCCCCCC(=O)O)C(=O)O)C(=O)NCC(=O)NCC(=O)N1CCC[C@H]1C(=O)N[C@@H](CO)C(=O)N[C@@H](CO)C(=O)NCC(=O)N[C@@H](C)C(=O)N1CCC[C@H]1C(=O)N1CCC[C@H]1C(=O)N1CCC[C@H]1C(=O)N[C@@H](CO)C(N)=O)[C@@H](C)CC)[C@@H](C)CC [Example 107] (H-Y[Aib]EGT[αMePhe(2-F)]TSDK([AEEA-AEEA-γGlu-C14 diacid])SI[αMeL]LD[Orn]IAQ[Aib]EFI[dE][αMeY]LIK([AEEA-AEEA-γGlu-C14 diacid])GGPSSGAPPPS-NH2)
EC50 (hGCGR; [1]): > 9950 nM
Emax (hGLP-1R; [2]): 93.4%
Emax (hGIPR; [3]): 94.3%
EC50 (hGIPR; [4]): 0.0473 nM
